Here are results for ten molecules from patent US6936719B2, “Biaryl compounds as serine protease inhibitors” (BioCryst Pharmaceuticals, Inc., priority 2001, dated 2005).

Assay type in all cases: biochemical
One experiment deals with TF/FVIIa (Homo sapiens, UniProt P08709). Kind of experiment: In vitro amidolytic assay for inhibition of TF/FVIIa (Spectrozyme-FVIIa, pNA absorbance at OD405). The protocol: In Vitro Assay for Inhibition of TF/FVIIa
To assess the inhibition of the test compounds against the target enzyme, TF/FVIIa, an amidolytic assay based upon the absorbance of p-Nitroanalide (pNA) at OD405 was utilized. The IC50 of the test compounds was determined by using KC4A data reduction software (Bio-Tek Instruments) to interpolate percent inhibition from observed Vmax values.
TF/FVIIa assay reactions were performed in a 200 μL mixture containing 4 nM FVIIa, 10 nM lipidated tissue factor, in an assay buffer containing 100 mM Tris, pH 7.2, 150 mM NaCl, 5 mM calcium chloride, 0.1% bovine serum albumin (BSA), and 10% dimethyl sulfoxide (DMSO). TF and FVIIa were allowed to equilibrate at room temperature for 15 minutes. Test compounds dissolved in DMSO were incubated at varied concentrations with TF/FVIIa for 10 minutes, followed by addition of 500 µM substrate Spectrozyme-FVIIa. Reactions were incubated for 5 minutes at room temperature prior to measuring the change in OD405 run for 10 minutes at 21 second intervals with a Powerwave x (Bio-Tek Instruments) microplate reader.

The target in a further experiment is human thrombin (Homo sapiens, UniProt P00734). The experiment is described as follows: In vitro colorimetric assay for human thrombin (Nα-Benzoyl-Phe-Val-Arg-p-Nitroanilide, OD405). The protocol: In Vitro Assay for Human Thrombin
This colorimetric assay was used to assess the ability of the test compounds to inhibit the human thrombin enzyme. IC50 of the test compounds was determined by using KC4A data reduction software (Bio-Tek Instruments) to interpolate percent inhibition from observed Vmax values.
Thrombin assay reactions were performed in a 200 μL mixture containing human thrombin at (1 U/mL) in an assay buffer containing 100 mM HEPES, 10 mM calcium chloride, and 10% DMSO, pH 7.5. Test compounds dissolved in DMSO were added to thrombin enzyme reactions at varied concentrations, followed by the addition of substrate Nα-Benzoyl-Phe-Val-Arg-p-Nitroanilide at a final concentration of 1 mM. Reactions were incubated for 5 minutes at room temperature prior to measuring the change in OD405 nm for 10 minutes at 21 second intervals with a Powerwave x (Bio-Tek Instruments) microplate reader.

In another experiment the test system is human pancreatic trypsin. The experiment is described as follows: In vitro enzymatic assay for human trypsin (L-BAPNA, OD405). The protocol: In Vitro Assay for Human Trypsin
This enzymatic assay was employed to evaluate the ability of the test compounds to inhibit human pancreatic trypsin. IC50 of the test compounds was determined by using KC4A data reduction software (Bio-Tek Instruments) to interpolate percent inhibition from observed Vmax values.
Trypsin assay reactions were performed in a 200 μL mixture containing human pancreatic trypsin at 1 μg/mL in an assay buffer containing 200 mM triethanolamine (TEA), 10 mM calcium chloride, 10% DMSO, pH 7.8. Test compounds dissolved in DMSO were added to trypsin enzyme reactions at varied concentrations, followed by the addition of substrate Nα-Benzoyl-L-Arginine p-Nitroanilide (L-BAPNA) at a final concentration of (0.25 mg/mL). Reactions were incubated for 5 minutes at room temperature prior to measuring the change in OD405 nm for 10 minutes at 21 second intervals with a Powerwave x (Bio-Tek Instruments) microplate reader.

TF/FVIIa, sequence (P08709 213-466 limits assumed): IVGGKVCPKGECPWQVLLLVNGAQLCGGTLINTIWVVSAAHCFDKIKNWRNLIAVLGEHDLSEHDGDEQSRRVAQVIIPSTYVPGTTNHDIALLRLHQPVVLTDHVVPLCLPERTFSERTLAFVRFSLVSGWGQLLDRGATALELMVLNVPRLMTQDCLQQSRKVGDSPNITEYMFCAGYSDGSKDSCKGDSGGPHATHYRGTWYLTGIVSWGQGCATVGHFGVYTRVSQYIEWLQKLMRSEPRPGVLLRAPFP
TF/FVIIa, sequence (P08709 61-212 limits assumed): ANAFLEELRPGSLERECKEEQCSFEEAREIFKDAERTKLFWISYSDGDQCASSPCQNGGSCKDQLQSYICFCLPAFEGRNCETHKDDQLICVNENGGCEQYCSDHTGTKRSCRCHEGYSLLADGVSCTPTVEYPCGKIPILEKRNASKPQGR
TF/FVIIa, sequence (P13726 33-295 partner): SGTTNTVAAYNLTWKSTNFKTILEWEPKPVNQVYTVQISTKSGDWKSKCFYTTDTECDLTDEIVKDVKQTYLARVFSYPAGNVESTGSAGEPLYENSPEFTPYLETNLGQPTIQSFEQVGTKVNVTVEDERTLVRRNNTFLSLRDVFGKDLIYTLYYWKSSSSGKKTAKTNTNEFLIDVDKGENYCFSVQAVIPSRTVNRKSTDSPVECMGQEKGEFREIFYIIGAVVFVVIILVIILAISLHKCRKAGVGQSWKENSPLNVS

What is called IC50 is the concentration at which inhibition is half-maximal. Turning to `CC(C)CNC(=O)c1ccc(-c2ccc(-c3ccncc3)cc2C(=O)Nc2ccc(C(=N)N)cc2)c(C(=O)O)c1`, the 50% inhibitory concentration (IC50) is > 100 nM against TF/FVIIa, > 1000 nM at human thrombin and > 1000 nM in the experiment with human pancreatic trypsin.

Take `CC(C)CNC(=O)c1ccc(-c2ccc(-c3ccc(CO)s3)cc2C(=O)Nc2ccc(C(=N)N)cc2)c(C(=O)O)c1`: the IC50 against TF/FVIIa was > 100 nM; at human thrombin, > 1000 nM; with human pancreatic trypsin, > 1000 nM.

`CC(C)CNC(=O)c1ccc(-c2ccc(-c3nccs3)cc2C(=O)Nc2ccc(C(=N)N)cc2)c(C(=O)O)c1`: the IC50 was > 100 nM on TF/FVIIa, > 1000 nM against human thrombin and > 1000 nM with human pancreatic trypsin.

On to `CC(C)CNC(=O)c1ccc(-c2ccc(C#CC(C)(C)O)cc2C(=O)Nc2ccc(C(=N)N)cc2)c(C(=O)O)c1`, for which the IC50 against TF/FVIIa was > 100 nM.

Take `CC(C)CNC(=O)c1ccc(-c2cc(Oc3ccccc3)ccc2C(=O)Nc2ccc(C(=N)N)cc2)c(C(=O)O)c1`: the half-maximal inhibitory concentration (IC50) against TF/FVIIa was > 1000 nM.

Regarding `CC(C)CNC(=O)c1ccc(-c2cc(-c3cccs3)ccc2C(=O)Nc2ccc(C(=N)N)cc2)c(C(=O)O)c1`, on TF/FVIIa, the IC50 is > 100 nM.

`C#CCNC(=O)c1ccc(-c2ccc(-c3ccco3)cc2C(=O)Nc2ccc(C(=N)N)cc2)c(C(=O)O)c1`: the IC50 is < 100 nM on TF/FVIIa, > 1000 nM against human thrombin and 100 to 1000 nM with human pancreatic trypsin.

Take `C=Cc1ccc(-c2ccc(C(=O)NC(CCC)CCC)cc2C(=O)O)c(C(=O)Nc2ccc(C(=N)N)cc2)c1`: the values for the IC50 at TF/FVIIa, on human thrombin and in the experiment with human pancreatic trypsin were < 100 nM, > 1000 nM and 100 to 1000 nM, respectively.

Take `N=C(N)c1ccc(NC(=O)c2cc(-c3ccco3)ccc2-c2ccc(C(=O)NCCCCCC(=O)O)cc2C(=O)O)cc1`: the values for the half-maximal inhibitory concentration (IC50) against TF/FVIIa, against human thrombin and in the experiment on human pancreatic trypsin were < 100 nM, > 1000 nM and 100 to 1000 nM, respectively.

For `C=Cc1ccc(-c2ccc(C(=O)NCC(C)C)cc2C(=O)O)c(C(=O)Nc2ccc(C(=N)N)cc2)c1`, the IC50 at TF/FVIIa is < 100 nM; on human thrombin it was > 1000 nM; with human pancreatic trypsin, 100 to 1000 nM.
